Assay results from patent publication US20240000767A1, “COMBINATION OF AN ALPHA2-ADRENOCEPTOR SUBTYPE C (ALPHA-2C) ANTAGONIST WITH A TASK1/3 CHANNEL BLOCKER FOR THE TREATMENT OF SLEEP APNEA” (Bayer Aktiengesellschaft, priority 2020, published 2024).

These compounds were tested against human ADRA2C receptor (Homo sapiens (Human), UniProt P18825) (assay: In vitro activity assay to determine the inhibition of recombinant ADRA2C (CHO-K1 cells, aequorin bioluminescence)). Conditions: inhibition of noradrenaline-induced bioluminescence signal; some mean values from multiple determinations; read-out: ARα2C IC50.
Type: cell-based
Method: B-2. In Vitro Activity Assay to Determine the Inhibition of Recombinant ADRA2C
The human ADRA2C receptor belongs to the G protein(guanine-dependent protein)-coupled receptors, the main function of which is the transduction of signals into the interior of the cell.
The investigations of the inhibition of the recombinant human ADRA2C receptors were carried out with stabily transfected CHO-K1 cells coexpressing the Gaq protein and the calcium-sensitive photoprotein aequorin. In this recombinant system, binding of the agonists noradrenaline to the ADRA2C receptor leads, after activation of a signal cascade, to calcium release from intracellular stores, which is detected by the intracellular calcium sensor aequorin as a bioluminescent signal. The method is described in detail in the reference below. [Wunder F., Kalthof B., Muller T., Hueser J. Functional Cell-Based Assays in Microliter Volumes for Ultra-High Throughput Screening. Combinatorial Chemistry & High Throughput Screening, Volume 11, Number 7, 2008, pp. 495-504(10). doi.org/10.2174/138620708785204054]
The activity of the test substances was determined via their ability to inhibit the agonist-induced increase of the bioluminescence signal. The concentration which can block half of this signal increase is referred to as IC50. The IC50 value is calculated using the 4 parameter logistic function (Hill function):
Top=upper threshold, Bottom=lower threshold, Slope=slope, IC50=turning point

Sequence of human ADRA2C receptor (P18825 whole entry): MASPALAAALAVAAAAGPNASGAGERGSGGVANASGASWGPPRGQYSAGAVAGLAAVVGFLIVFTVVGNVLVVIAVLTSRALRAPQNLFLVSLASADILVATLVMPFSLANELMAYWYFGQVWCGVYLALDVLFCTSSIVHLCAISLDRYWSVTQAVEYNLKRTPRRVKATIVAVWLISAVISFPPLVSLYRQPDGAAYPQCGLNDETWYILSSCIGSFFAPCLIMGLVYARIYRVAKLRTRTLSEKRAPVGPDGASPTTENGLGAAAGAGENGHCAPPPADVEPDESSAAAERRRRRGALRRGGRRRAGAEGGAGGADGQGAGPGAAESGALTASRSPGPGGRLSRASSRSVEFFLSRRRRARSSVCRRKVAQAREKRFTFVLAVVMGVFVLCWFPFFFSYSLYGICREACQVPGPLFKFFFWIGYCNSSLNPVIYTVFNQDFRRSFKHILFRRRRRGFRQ

| IC50 [nM] | SMILES |
| --- | --- |
| 73.5 | C[C@@H]1CCCN(C2CCN(c3ncc(C(=O)NCc4ncc(F)cc4F)s3)CC2F)C1 (mixture of isomers) [Example 50, diamix-N-[(3,5-Difluoropyridin-2-yl)methyl]-2-[(3R)-3′-fluoro-3-methyl[1,4′-bipiperidin]-1′-yl]-1,3-thiazole-5-carboxamide] |
| 150 | CC(NC(=O)c1cnc(N2CCC(N3CCC[C@@H](C)C3)CC2)s1)c1ncc(F)cc1F (mixture of isomers) [Example 55, diamix-N-[1-(3,5-Difluoropyridin-2-yl)ethyl]-2-[(3R)-3-methyl[1,4′-bipiperidin]-1′-yl]-1,3-thiazole-5-carboxamide] |
| 0.49 | C[C@@H]1CCCN(C2CCN(c3nc(C(=O)NCc4ncc(F)cc4F)cs3)CC2F)C1 (mixture of isomers) [Example 111, diamix-N-[(3,5-Difluoropyridin-2-yl)methyl]-2-[(3R)-3′-fluoro-3-methyl[1,4′-bipiperidin]-1′-yl]-1,3-thiazole-4-carboxamide] |
| 1.2 | C[C@@H]1CCCN(C2CCN(c3nc(C(=O)NCc4ncc(F)cc4F)co3)CC2F)C1 (mixture of isomers) [Example 112, diamix-N-[(3,5-Difluoropyridin-2-yl)methyl]-2-[(3R)-3′-fluoro-3-methyl[1,4′-bipiperidin]-1′-yl]-1,3-oxazole-4-carboxamide] |
| 0.61 | C[C@@H]1CCCN(C2CCN(c3ncc(C(=O)NCc4cc(Cl)ccc4F)s3)CC2F)C1 (mixture of isomers) [Example 113, diamix-N-(5-Chloro-2-fluorobenzyl)-2-[(3R)-3′-fluoro-3-methyl[1,4′-bipiperidin]-1′-yl]-1,3-thiazole-5-carboxamide] |
| 0.65 | CC(NC(=O)c1cnc(N2CCC(N3CCC[C@@H](C)C3)C(F)C2)s1)c1cc(F)ccc1F (mixture of isomers) [Example 117, diamix-N-[1-(2,5-Difluorophenyl)ethyl]-2-[(3R)-3′-fluoro-3-methyl[1,4′-bipiperidin]-1′-yl]-1,3-thiazole-5-carboxamide] |
| 2.9 | O=C(NCc1ncc(F)cc1F)c1cnc(N2CCC(N3CCCC(CC4CC4)C3)CC2)s1 (racemic) [Example 3, 2-[3-(Cyclopropylmethyl)[1,4′-bipiperidin]-1′-yl]-N-[(3,5-difluoropyridin-2-yl)methyl]-1,3-thiazole-5-carboxamide (racemate)] |
| 169 | O=C(NCc1ncc(F)cc1F)c1cnc(N2CCC(N3CCCC(C(F)F)C3)CC2)s1 (racemic) [Example 4, 2-[3-(difluoromethyl)[1,4′-bipiperidin]-1′-yl]-N-[(3,5-difluoropyridin-2-yl)methyl]-1,3-thiazole-5-carboxamide (racemate)] |
| 335 | O=C(NCc1ncc(F)cc1F)c1cnc(N2CCC(N3CCCC(C(F)(F)F)C3)CC2)s1 (racemic) [Example 5, N-[(3,5-difluoropyridin-2-yl)methyl]-2-[3-(trifluoromethyl)[1,4′-bipiperidin]-1′-yl]-1,3-thiazole-5-carboxamide (racemate)] |
| 335 | O=C(NCc1ncc(F)cc1F)c1cnc(N2CCC(N3CCCC(CF)C3)CC2)s1 (racemic) [Example 6, N-[(3,5-difluoropyridin-2-yl)methyl]-2-[3-(fluoromethyl)[1,4′-bipiperidin]-1′-yl]-1,3-thiazole-5-carboxamide (racemate)] |
| 49.6 | O=C(NCc1ncc(F)cc1F)c1cnc(N2CCC(N3CCCC(OCC4CC(F)(F)C4)C3)CC2)s1 (racemic) [Example 7, 2-{3-[(3,3-difluorocyclobutyl)methoxy][1,4′-bipiperidin]-1′-yl}-N-[(3,5-difluoropyridin-2-yl)methyl]-1,3-thiazole-5-carboxamide (racemate)] |
| 2000 | O=C(NCc1ncc(F)cc1F)c1cnc(N2CCC(N3CCCC(OC(F)F)C3)CC2)s1 (racemic) [Example 16, 2-[3-(Difluoromethoxy)[1,4′-bipiperidin]-1′-yl]-N-[(3,5-difluoropyridin-2-yl)methyl]-1,3-thiazole-5-carboxamide (racemate)] |
| 26.5 | CCC1CCCN(C2CCN(c3ncc(C(=O)NCc4ncc(F)cc4F)s3)CC2)C1 (racemic) [Example 17, N-[(3,5-Difluoropyridin-2-yl)methyl]-2-(3-ethyl[1,4′-bipiperidin]-1′-yl)-1,3-thiazole-5-carboxamide (racemate)] |
| 17 | COCC1CCCN(C2CCN(c3ncc(C(=O)NCc4ncc(F)cc4F)s3)CC2)C1 (racemic) [Example 48, rac-N-[(3,5-Difluoropyridin-2-yl)methyl]-2-[3-(methoxymethyl)[1,4′-bipiperidin]-1′-yl]-1,3-thiazole-5-carboxamide] |
| 110 | CC1CCCN(C2CCN(c3ncc(C(=O)NCc4ncc(F)cc4F)s3)CC2)CC1 (racemic) [Example 53, rac-N-[(3,5-Difluoropyridin-2-yl)methyl]-2-[4-(4-methylazepan-1-yl)piperidin-1-yl]-1,3-thiazole-5-carboxamide] |
| 230 | CC1CCCCN(C2CCN(c3ncc(C(=O)NCc4ncc(F)cc4F)s3)CC2)C1 (racemic) [Example 54, rac-N-[(3,5-Difluoropyridin-2-yl)methyl]-2-[4-(3-methylazepan-1-yl)piperidin-1-yl]-1,3-thiazole-5-carboxamide] |
| 11 | O=C(NCc1ncc(F)cc1F)c1cnc(N2CCC(N3CCCC(COCC(F)(F)F)C3)CC2)s1 (racemic) [Example 59, rac-N-[(3,5-Difluoropyridin-2-yl)methyl]-2-{3-[(2,2,2-trifluoroethoxy)methyl][1,4′-bipiperidin]-1′-yl}-1,3-thiazole-5-carboxamide] |
| 74 | O=C(NCc1ncc(F)cc1F)c1cnc(N2CCC(N3CCCC(COCC4(CF)CC4)C3)CC2)s1 (racemic) [Example 60, rac-N-[(3,5-Difluoropyridin-2-yl)methyl]-2-[3-({[1-(fluoromethyl)cyclopropyl]methoxy}methyl)[1,4′-bipiperidin]-1′-yl]-1,3-thiazole-5-carboxamide] |
| 87 | O=C(NCc1ncc(F)cc1F)c1cnc(N2CCC(N3CCCC(COCC4(C(F)F)CC4)C3)CC2)s1 (racemic) [Example 61, rac-2-[3-({[1-(Difluoromethyl)cyclopropyl]methoxy}methyl)[1,4′-bipiperidin]-1′-yl]-N-[(3,5-difluoropyridin-2-yl)methyl]-1,3-thiazole-5-carboxamide] |
| 130 | O=C(NCc1ncc(F)cc1F)c1cnc(N2CCC(N3CCCC(COCC4(C(F)(F)F)CC4)C3)CC2)s1 (racemic) [Example 62, rac-N-[(3,5-Difluoropyridin-2-yl)methyl]-2-[3-({[1-(trifluoromethyl)cyclopropyl]methoxy}methyl)[1,4′-bipiperidin]-1′-yl]-1,3-thiazole-5-carboxamide] |
| 4.5 | O=C(NCc1ncc(F)cc1F)c1cnc(N2CCC(N3CCCC4(C3)CC4(F)F)CC2)s1 (racemic) [Example 65, rac-2-[4-(1,1-Difluoro-5-azaspiro[2.5]octan-5-yl)piperidin-1-yl]-N-[(3,5-difluoropyridin-2-yl)methyl]-1,3-thiazole-5-carboxamide] |
| 2.2 | O=C(NCc1ncc(F)cc1F)c1cnc(N2CCC(N3CCCC(OCC4CC4)C3)CC2)s1 (racemic) [Example 67, rac-2-[3-(Cyclopropylmethoxy)[1,4′-bipiperidin]-1′-yl]-N-[(3,5-difluoropyridin-2-yl)methyl]-1,3-thiazole-5-carboxamide] |
| 5.5 | O=C(NCc1ncc(F)cc1F)c1cnc(N2CCC(N3CCCC(COCC4CC4)C3)CC2)s1 (racemic) [Example 69, rac-2-{3-[(Cyclopropylmethoxy)methyl][1,4′-bipiperidin]-1′-yl}-N-[(3,5-difluoropyridin-2-yl)methyl]-1,3-thiazole-5-carboxamide] |
| 22 | CCOC1CCCN(C2CCN(c3ncc(C(=O)NCc4ncc(F)cc4F)s3)CC2)C1 (racemic) [Example 70, rac-N-[(3,5-Difluoropyridin-2-yl)methyl]-2-[3-ethoxy[1,4′-bipiperidin]-1′-yl]-1,3-thiazole-5-carboxamide] |
| 345 | O=C(NCc1ncc(F)cc1F)c1cnc(N2CCC(N3CCCC(COCC4CC(F)(F)C4)C3)CC2)s1 (racemic) [Example 75, rac-2-(3-{[(3,3-Difluorocyclobutyl)methoxy]methyl}[1,4′-bipiperidin]-1′-yl)-N-[(3,5-difluoropyridin-2-yl)methyl]-1,3-thiazole-5-carboxamide] |
| 640 | O=C(NCc1ncc(F)cc1F)c1cnc(N2CCC(N3CCCC(OCC(F)(F)F)C3)CC2)s1 (racemic) [Example 77, rac-N-[(3,5-Difluoropyridin-2-yl)methyl]-2-[3-(2,2,2-trifluoroethoxy)[1,4′-bipiperidin]-1′-yl]-1,3-thiazole-5-carboxamide] |
| 0.83 | CC(C)C1CCCN(C2CCN(c3ncc(C(=O)NCc4ncc(F)cc4F)s3)CC2)C1 (racemic) [Example 103, rac-N-[(3,5-Difluoropyridin-2-yl)methyl]-2-(3-isopropyl[1,4′-bipiperidin]-1′-yl)-1,3-thiazole-5-carboxamide] |
| 0.85 | O=C(NCc1ncc(F)cc1F)c1cnc(N2CCC(N3CCCC(OC4CCC4)C3)CC2)s1 (racemic) [Example 109, rac-2-[3-(Cyclobutyloxy)[1,4′-bipiperidin]-1′-yl]-N-[(3,5-difluoropyridin-2-yl)methyl]-1,3-thiazole-5-carboxamide] |
